Results on ten compounds are retold here after ChEMBL document CHEMBL1909046, “DrugMatrix in vitro pharmacology data”.

SMILES strings stand for the structures.

Assay [1] addresses cGMP-specific 3',5'-cyclic phosphodiesterase (Homo sapiens, UniProt O76074). Put plainly: DRUGMATRIX: Phosphodiesterase PDE5 enzyme inhibition (substrate: [3H]cGMP + cGMP). Type of assay: tissue-based. Particulars: platelet; Not Active = under 50% inhibition at 10 µM.
The target in assay [2] is Sodium-dependent dopamine transporter (Homo sapiens, UniProt Q01959). Description: DRUGMATRIX: Dopamine Transporter radioligand binding (ligand: [125I] RTI-55). Particulars: cho-k1; Not Active = under 50% inhibition at 10 µM. It is filed as cell membranes, CHO-K1, Membrane.
Assay [3] concerns the target T1, Vasoactive intestinal polypeptide receptor 1 (Homo sapiens, UniProt P32241). Also: in other assays of this panel Not Active means under 50% inhibition at 10 µM.
T1 sequence (P32241 whole entry): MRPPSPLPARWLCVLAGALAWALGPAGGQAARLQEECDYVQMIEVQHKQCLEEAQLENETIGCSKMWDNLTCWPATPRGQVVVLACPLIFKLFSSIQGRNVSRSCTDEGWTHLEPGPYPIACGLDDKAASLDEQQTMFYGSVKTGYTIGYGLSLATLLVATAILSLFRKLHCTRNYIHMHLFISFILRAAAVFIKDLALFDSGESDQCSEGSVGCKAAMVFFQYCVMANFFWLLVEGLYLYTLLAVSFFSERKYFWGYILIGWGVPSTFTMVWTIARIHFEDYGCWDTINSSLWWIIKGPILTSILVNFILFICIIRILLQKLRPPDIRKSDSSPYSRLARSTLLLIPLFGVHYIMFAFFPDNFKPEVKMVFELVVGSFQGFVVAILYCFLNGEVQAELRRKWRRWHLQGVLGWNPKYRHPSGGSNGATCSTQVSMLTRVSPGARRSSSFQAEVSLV
Type of assay: cell membranes, Membrane. The following applies: ht-29.

In assay [4] the target is T2, Neuropeptide Y receptor type 1 (Homo sapiens, UniProt P25929). Also: in other assays of this panel Not Active means under 50% inhibition at 10 µM.
T2 sequence (P25929 whole entry): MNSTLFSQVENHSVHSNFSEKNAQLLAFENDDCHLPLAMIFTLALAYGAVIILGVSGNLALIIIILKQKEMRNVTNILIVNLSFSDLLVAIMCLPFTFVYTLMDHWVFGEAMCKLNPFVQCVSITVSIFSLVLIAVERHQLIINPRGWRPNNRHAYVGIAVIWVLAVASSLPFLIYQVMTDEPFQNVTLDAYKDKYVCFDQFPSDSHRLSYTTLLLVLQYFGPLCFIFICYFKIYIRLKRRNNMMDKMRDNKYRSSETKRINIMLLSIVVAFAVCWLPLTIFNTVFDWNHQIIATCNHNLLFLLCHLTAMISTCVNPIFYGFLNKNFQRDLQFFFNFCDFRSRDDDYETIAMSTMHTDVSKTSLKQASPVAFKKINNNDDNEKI
Type of assay: cell membranes, Membrane. The following applies: sk-n-mc.

The target in assay [5] is Platelet-activating factor receptor (Homo sapiens, UniProt P25105). It is filed as tissue-based. Also: in other assays of this panel Not Active means under 50% inhibition at 10 µM.
Assay [6] deals with T3, Glucocorticoid receptor (Homo sapiens, UniProt P04150).
T3 sequence (P04150 whole entry): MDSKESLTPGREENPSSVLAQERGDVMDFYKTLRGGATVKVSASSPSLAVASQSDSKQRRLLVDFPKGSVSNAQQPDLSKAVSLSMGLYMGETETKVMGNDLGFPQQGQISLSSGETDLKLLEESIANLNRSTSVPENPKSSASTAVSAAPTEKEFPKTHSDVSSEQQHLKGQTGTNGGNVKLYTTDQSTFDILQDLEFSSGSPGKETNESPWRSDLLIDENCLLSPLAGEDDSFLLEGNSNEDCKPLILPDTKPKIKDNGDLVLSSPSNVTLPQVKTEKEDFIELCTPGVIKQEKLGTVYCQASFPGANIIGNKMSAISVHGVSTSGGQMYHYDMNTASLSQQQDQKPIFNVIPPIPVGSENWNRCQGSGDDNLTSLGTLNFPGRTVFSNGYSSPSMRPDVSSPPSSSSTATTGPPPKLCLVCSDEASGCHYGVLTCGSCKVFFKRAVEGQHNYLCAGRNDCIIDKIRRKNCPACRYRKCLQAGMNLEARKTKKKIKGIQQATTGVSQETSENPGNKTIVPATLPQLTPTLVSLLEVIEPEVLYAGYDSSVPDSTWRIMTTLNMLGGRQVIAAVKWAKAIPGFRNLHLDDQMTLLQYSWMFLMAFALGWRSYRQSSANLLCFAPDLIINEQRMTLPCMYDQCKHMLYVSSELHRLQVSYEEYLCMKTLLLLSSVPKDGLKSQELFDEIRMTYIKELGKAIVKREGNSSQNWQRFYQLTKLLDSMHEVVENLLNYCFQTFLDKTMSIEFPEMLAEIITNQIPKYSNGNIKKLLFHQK
The following applies: hela s3.

The nature of assay [7]: DRUGMATRIX: Atrial Natriuretic Factor (ANF) radioligand binding (ligand: [125I] ANF (rat)). Type of assay: cell membranes, Cavia porcellus, Dunkin-Hartley, Adrenal gland, Membrane. The following applies: Not Active = under 50% inhibition at 10 µM.
Assay [8] deals with Epidermal growth factor receptor (Homo sapiens, UniProt P00533). Put plainly: DRUGMATRIX: Protein Tyrosine Kinase, EGF Receptor enzyme inhibition (substrate: Poly(Glu:Tyr)). Type of assay: cell-based, Insect cells. Particulars: Not Active = under 50% inhibition at 10 µM.
Sequence of Epidermal growth factor receptor (P00533 whole entry): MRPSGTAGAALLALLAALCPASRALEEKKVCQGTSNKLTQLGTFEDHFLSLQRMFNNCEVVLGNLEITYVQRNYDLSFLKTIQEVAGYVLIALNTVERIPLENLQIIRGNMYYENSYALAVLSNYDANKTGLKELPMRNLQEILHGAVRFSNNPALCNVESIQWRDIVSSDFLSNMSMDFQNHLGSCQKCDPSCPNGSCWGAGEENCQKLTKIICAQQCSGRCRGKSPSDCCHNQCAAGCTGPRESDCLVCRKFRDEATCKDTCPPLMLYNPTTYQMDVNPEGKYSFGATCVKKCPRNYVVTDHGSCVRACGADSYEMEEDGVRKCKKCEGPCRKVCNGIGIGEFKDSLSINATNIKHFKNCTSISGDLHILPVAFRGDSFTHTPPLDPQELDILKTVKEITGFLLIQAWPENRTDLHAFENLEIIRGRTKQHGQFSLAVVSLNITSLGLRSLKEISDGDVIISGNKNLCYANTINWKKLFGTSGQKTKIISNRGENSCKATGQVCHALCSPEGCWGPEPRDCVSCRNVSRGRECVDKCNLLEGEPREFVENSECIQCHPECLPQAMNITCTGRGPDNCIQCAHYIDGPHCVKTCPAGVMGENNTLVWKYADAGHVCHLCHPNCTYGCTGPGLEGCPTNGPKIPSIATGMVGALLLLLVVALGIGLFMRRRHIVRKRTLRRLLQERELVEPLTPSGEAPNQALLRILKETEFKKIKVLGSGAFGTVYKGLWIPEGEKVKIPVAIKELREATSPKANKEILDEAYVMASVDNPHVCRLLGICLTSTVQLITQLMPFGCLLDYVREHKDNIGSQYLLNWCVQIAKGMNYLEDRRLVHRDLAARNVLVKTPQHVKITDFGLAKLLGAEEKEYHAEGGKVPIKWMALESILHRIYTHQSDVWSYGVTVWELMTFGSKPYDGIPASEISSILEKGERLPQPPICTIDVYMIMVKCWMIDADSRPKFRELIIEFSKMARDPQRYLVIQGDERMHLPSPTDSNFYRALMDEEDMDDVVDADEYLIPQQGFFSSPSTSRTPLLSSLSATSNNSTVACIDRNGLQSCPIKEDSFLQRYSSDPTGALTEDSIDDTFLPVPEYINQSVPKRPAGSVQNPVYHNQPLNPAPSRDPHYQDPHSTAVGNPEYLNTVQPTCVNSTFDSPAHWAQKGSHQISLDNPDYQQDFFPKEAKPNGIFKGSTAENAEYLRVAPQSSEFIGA

Sequence of Sodium-dependent dopamine transporter (Q01959 whole entry): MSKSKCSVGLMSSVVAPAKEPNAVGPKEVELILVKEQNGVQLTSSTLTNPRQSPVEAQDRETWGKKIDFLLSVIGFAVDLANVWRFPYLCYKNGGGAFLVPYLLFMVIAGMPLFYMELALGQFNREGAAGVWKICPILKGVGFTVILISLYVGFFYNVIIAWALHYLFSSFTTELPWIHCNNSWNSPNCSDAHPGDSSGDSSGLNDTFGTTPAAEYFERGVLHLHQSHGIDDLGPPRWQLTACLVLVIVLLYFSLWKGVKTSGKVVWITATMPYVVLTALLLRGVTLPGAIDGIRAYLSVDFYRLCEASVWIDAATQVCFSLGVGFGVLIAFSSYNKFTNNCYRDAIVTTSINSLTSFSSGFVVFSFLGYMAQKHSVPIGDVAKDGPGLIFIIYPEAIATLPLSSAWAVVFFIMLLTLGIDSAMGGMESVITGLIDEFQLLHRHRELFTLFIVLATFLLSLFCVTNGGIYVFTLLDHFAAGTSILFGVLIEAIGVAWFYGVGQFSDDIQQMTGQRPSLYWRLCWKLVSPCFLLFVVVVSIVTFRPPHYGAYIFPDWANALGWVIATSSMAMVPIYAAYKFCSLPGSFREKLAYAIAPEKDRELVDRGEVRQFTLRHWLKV
Sequence of Platelet-activating factor receptor (P25105 whole entry): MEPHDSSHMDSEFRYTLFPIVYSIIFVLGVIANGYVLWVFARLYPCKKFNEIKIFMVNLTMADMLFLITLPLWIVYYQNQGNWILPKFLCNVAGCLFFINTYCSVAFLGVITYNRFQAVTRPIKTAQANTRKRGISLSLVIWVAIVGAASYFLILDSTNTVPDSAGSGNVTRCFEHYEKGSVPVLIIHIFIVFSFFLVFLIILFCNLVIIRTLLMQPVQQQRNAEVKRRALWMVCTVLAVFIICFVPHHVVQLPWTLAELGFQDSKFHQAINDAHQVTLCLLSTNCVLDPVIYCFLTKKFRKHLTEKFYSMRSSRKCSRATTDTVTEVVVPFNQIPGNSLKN

Regarding `CC(C)CN(C[C@@H](O)[C@H](Cc1ccccc1)NC(=O)O[C@H]1CCOC1)S(=O)(=O)c1ccc(N)cc1`, the IC50 result in assay [1], in assay [2], in assay [3], in assay [4], in assay [5] and in assay [6] was “Not Active” in each case. The IC50 entry in assay [7] and in assay [8] (insect cells) was “Not Active” in each case. In addition, in assay [7], the Ki result is given as “Not Active”.

Consider `c1ccc(Nc2ccc(Nc3ccccc3)cc2)cc1`, for which the IC50 entry in assay [1], in assay [2], in assay [3], in assay [4], in assay [5] and in assay [6] was “Not Active” each time. In addition, the IC50 entry in assay [7] and in assay [8] (insect cells) was “Not Active” throughout. In addition, the Ki entry in assay [7] is reported as “Not Active”.

Take `NC(=O)N1c2ccccc2CCc2ccccc21`: the half-maximal inhibitory concentration (IC50) result in assay [1], in assay [2], in assay [3], in assay [4], in assay [5] and in assay [6] was “Not Active” throughout. Also, the half-maximal inhibitory concentration (IC50) entry in assay [7] and in assay [8] (insect cells) was “Not Active” in each case. For the same compound, the Ki result in assay [7] is reported as “Not Active”.

Turning to `O=C1CC[C@@H](N2C(=O)c3ccccc3C2=O)C(=O)N1`, the IC50 entry in assay [1], in assay [2], in assay [3], in assay [4], in assay [5] and in assay [6] was “Not Active” throughout. For the same compound, the IC50 result in assay [7] and in assay [8] (insect cells) was “Not Active” in each case. Also, the Ki result in assay [7] was “Not Active”.

As to `Cc1onc(O)c1CC(N)C(=O)O` (racemic) [(R,S)-AMPA], the IC50 result in assay [1], in assay [2], in assay [3], in assay [4], in assay [5] and in assay [6] was “Not Active” in each case. Besides, the IC50 result in assay [7] and in assay [8] (insect cells) was “Not Active” in each case. Further, the Ki result in assay [7] was “Not Active”.

For `Cc1ccc2cc3c(ccc4ccccc43)c3c2c1CC3` [3-METHYLCHOLANTHRENE], the IC50 entry in assay [1], in assay [2], in assay [3], in assay [4], in assay [5] and in assay [6] was “Not Active” each time. The IC50 entry in assay [7] and in assay [8] (insect cells) was “Not Active” each time. The Ki result in assay [7] is on record as “Not Active”.

`CCOC(=O)C1=C(COCCN)NC(C)=C(C(=O)OC)C1c1ccccc1Cl` (stereo unspecified) [AMLODIPINE]: the IC50 result in assay [1], in assay [3], in assay [4], in assay [5], in assay [6] and in assay [7] was “Not Active” each time. In addition, the half-inhibitory concentration (IC50) entry in assay [8] (insect cells) was “Not Active”. For the same compound, in assay [7], the Ki entry is given as “Not Active”.

For `CC(NC(C)(C)C)C(=O)c1cccc(Cl)c1` (stereo unspecified) [BUPROPION], the IC50 entry in assay [1], in assay [3], in assay [4], in assay [5], in assay [6] and in assay [7] was “Not Active” in each case. Moreover, the IC50 result in assay [8] (insect cells) is “Not Active”. In addition, the Ki entry in assay [7] was “Not Active”.

For the compound `CN(C)CCCN1c2ccccc2Sc2ccc(Cl)cc21` [CHLORPROMAZINE], the IC50 result in assay [1], in assay [3], in assay [4], in assay [5], in assay [6] and in assay [7] was “Not Active” each time. Further, in assay [8] (read-out: IC50), the IC50 was 28.9 µM. The Ki result in assay [7] is “Not Active”.

As to `CN(C)CCCN1c2ccccc2Sc2ccccc21` [PROMAZINE], the IC50 entry in assay [1], in assay [2], in assay [3], in assay [4], in assay [5] and in assay [7] was “Not Active” throughout. In assay [8] (insect cells), the IC50 entry was “Not Active”. In assay [7], the Ki result was “Not Active”.

In general, IC50 refers to the concentration at which inhibition is half-maximal.
